Measurements taken from US7132428B2, “Pyrazoloisoquinoline derivative as kinase inhibitors for the treatment of various disorders” (Aventis Pharmaceuticals Inc., priority 2003, dated 2006).

Legend:
[1] = test system: human peripheral blood lymphocytes; experiment: Cytotoxicity by LDH release, LPS-stimulated human peripheral blood lymphocytes; type: cell-based
Protocol: (§1) The pyrazoloisoquinoline derivatives according to the invention were tested for inhibitory activity against NIK in various in vitro assay systems. In this connection, human peripheral blood lymphocytes were preincubated for 1 h with different concentrations of the compounds and then stimulated for 24 h with LPS or IL1β. After that, a commercially obtainable ELISA test kit was used to measure the release of TNFα in the culture supernatant, and the IC50 for the given compound was determined. The cytotoxicity was measured by way of LDH release using a commercially obtainable test kit and the LD50 for the given compound was determined.

[2] = test system: human peripheral blood lymphocytes; experiment: Cytotoxicity by LDH release, IL1β-stimulated human peripheral blood lymphocytes; type: cell-based
Protocol: as §1

Structure (SMILES)	Cytotoxicity LD50 [1] [µM]	Cytotoxicity LD50 [2] [µM]	melting point [°C]
c1ccc(-c2nc3c(-c4ccccc4)n[nH]c3c3ccccc23)cc1 [Example 1, 3,5-Diphenyl-1H-pyrazolo[4,3-c]isoquinoline]	>100	>100	–
COc1cccc(-c2nc3c(C)n[nH]c3c3ccccc23)c1 [Example 2, 5-(3-Methoxyphenyl)-3-methyl-1H-pyrazolo[4,3-c]isoquinoline]	>100	>100	–
Cc1n[nH]c2c1nc(-c1cccc(O)c1)c1ccccc12 [Example 3, 3-(3-Methyl-1H-pyrazolo[4,3-c]isoquinolin-5-yl)phenol]	>100	>100	–
CCc1n[nH]c2c1nc(-c1ccccc1)c1ccccc12 [Example 46, 5-phenyl-3-ethyl-1H-pyrazolo[4,3-c]isoquinoline]	–	–	250 to 251
CCc1n[nH]c2c1nc(-c1cccnc1)c1ccccc12 [Example 47, 3-Ethyl-5-(pyridin-3-yl)-1H-pyrazolo[4,3-c)isoquinoline]	–	–	219 to 220
Cc1n[nH]c2c1nc(-c1ccccc1)c1cc(Br)ccc12 [Example 62, 7-Bromo-3-methyl-5-phenyl-1H-pyrazolo[4,3-c]isoquinoline]	–	–	299 to 300
FC(F)(F)c1n[nH]c2c1nc(-c1ccccc1)c1ccccc12 [Example 75, 5-phenyl-3-trifluoromethyl-1H-pyrazolo[4,3-c]isoquinoline]	–	–	264 to 265
